From PubChem BioAssay AID248 (DTP/NCI, 2004)
Several values for one entry are separate records, joined by “and”; a condition that tells them apart may be missing. Equal entries are not always repeated. Toxic doses and inconclusive results are not listed. Cut-off read from the data, not from the text of the source: active = T/C of 150% or more; inactive = T/C below 125%.

System: L1210 leukemia ip in BDF1 mice, survival T/C
Test: NCI In Vivo Anticancer Drug Screen. Data for tumor model L1210 Leukemia (intraperitoneal) in B6D2F1 (BDF1) mice
Settings: endpoint: mean survival time, higher = longer survival
In short: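 Tumor was transplanted into mice, which were then dosed with test compound or vehicle alone. Survival was recorded for each group, and the treated figure was expressed relative to the control figure.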

[1] = dose: 50.0 mg/kg/injection, schedule: Q04DX003 (ip), vehicle: Klucel (hydroxypropylcellulose) (HPC)
[2] = dose: 100.0 mg/kg/injection, schedule: Q04DX003 (ip), vehicle: Klucel (hydroxypropylcellulose) (HPC)
[3] = dose: 200.0 mg/kg/injection, schedule: Q04DX003 (ip), vehicle: Klucel (hydroxypropylcellulose) (HPC)
[4] = dose: 100.0 mg/kg/injection, schedule: Q01DX009 (ip), vehicle: saline with Tween-80
[5] = dose: 200.0 mg/kg/injection, schedule: Q01DX009 (ip), vehicle: saline with Tween-80
[6] = dose: 400.0 mg/kg/injection, schedule: Q01DX009 (ip), vehicle: saline with Tween-80
[7] = dose: 50.0 mg/kg/injection, schedule: Q01DX001 (ip), vehicle: carboxymethylcellulose (CMC)
[8] = dose: 100.0 mg/kg/injection, schedule: Q01DX001 (ip), vehicle: carboxymethylcellulose (CMC)
[9] = dose: 200.0 mg/kg/injection, schedule: Q01DX001 (ip), vehicle: carboxymethylcellulose (CMC)
[10] = dose: 400.0 mg/kg/injection, schedule: Q01DX001 (ip), vehicle: carboxymethylcellulose (CMC)
[11] = dose: 50.0 mg/kg/injection, schedule: Q01DX009 (ip), vehicle: saline
[12] = dose: 100.0 mg/kg/injection, schedule: Q01DX009 (ip), vehicle: saline
[13] = dose: 100.0 mg/kg/injection, schedule: Q04DX003 (ip), vehicle: saline
[14] = dose: 200.0 mg/kg/injection, schedule: Q01DX009 (ip), vehicle: saline
[15] = dose: 200.0 mg/kg/injection, schedule: Q04DX003 (ip), vehicle: saline
[16] = dose: 400.0 mg/kg/injection, schedule: Q01DX009 (ip), vehicle: saline
[17] = dose: 400.0 mg/kg/injection, schedule: Q04DX003 (ip), vehicle: saline

Measured: T/C

CCCCCCCCCCCCOP(=S)(S)OCCCCCCCCCCCC.[Cd]
inactive: dose: 1.56 mg/kg/injection, schedule: Q01DX009 (ip), vehicle: saline with Tween-80 102 % of control | dose: 3.13 mg/kg/injection, schedule: Q01DX009 (ip), vehicle: saline with Tween-80 97 % of control | dose: 6.25 mg/kg/injection, schedule: Q01DX009 (ip), vehicle: saline with Tween-80 96 % of control | dose: 50.0 mg/kg/injection, schedule: Q04DX002 (ip), vehicle: saline with Tween-80 94 % of control | dose: 100.0 mg/kg/injection, schedule: Q04DX002 (ip), vehicle: saline with Tween-80 86 % of control and 91 % of control

O=C(CCl)NC1=C(N2CC2)C(=O)c2ccccc2C1=O
inactive: [1] 93 % of control | [2] 91 % of control

Clc1nc2ccccc2nc1Cl
inactive: dose: 12.5 mg/kg/injection, schedule: Q04DX003 (sc), vehicle: olive oil, sesame oil, peanut oil 98 % of control | dose: 25.0 mg/kg/injection, schedule: Q04DX003 (sc), vehicle: olive oil, sesame oil, peanut oil 109 % of control

[O-][n+]1c2ccccc2nc2cc(Cl)ccc21
inactive: [2] 107 % of control | [3] 100 % of control | dose: 400.0 mg/kg/injection, schedule: Q04DX003 (ip), vehicle: Klucel (hydroxypropylcellulose) (HPC) 96 % of control

Cc1c(O)c(Br)c(-c2c(C)c(Br)c(C)c([N+](=O)[O-])c2C)c(O)c1Br
inactive: dose: 75.0 mg/kg/injection, schedule: Q04DX003 (ip), vehicle: Klucel (hydroxypropylcellulose) (HPC) 103 % of control | dose: 150.0 mg/kg/injection, schedule: Q04DX003 (ip), vehicle: Klucel (hydroxypropylcellulose) (HPC) 93 % of control | dose: 300.0 mg/kg/injection, schedule: Q04DX003 (ip), vehicle: Klucel (hydroxypropylcellulose) (HPC) 88 % of control

COc1ccc(C(C)=O)c(O)c1C
inactive: [4] 111 % of control | [5] 94 % of control | [6] 92 % of control

COc1cc(OC)c2c(=O)c3ccoc3n(C)c2c1OC
inactive: [7] 98 % of control | [8] 98 % of control | [9] 93 % of control | [10] 93 % of control

CCCCNC(=O)OCC(C)(CCC)COC(N)=O (stereo not given)
inactive: dose: 25.0 mg/kg/injection, schedule: Q01DX009 (ip), vehicle: saline 101 % of control | dose: 25.0 mg/kg/injection, schedule: Q04DX003 (ip), vehicle: saline 95 % of control | [11] 101 % of control | dose: 50.0 mg/kg/injection, schedule: Q04DX003 (ip), vehicle: saline 95 % of control | [12] 109 % of control | [13] 101 % of control | [14] 104 % of control | [15] 95 % of control | [16] 103 % of control | [17] 95 % of control

O=S(=O)(Nc1ccccc1)c1ccccc1C=C(c1ccccc1)c1ccccc1
inactive: dose: 100.0 mg/kg/injection, schedule: Q01DX001 (ip), vehicle: steriod suspending solution 105 % of control | dose: 200.0 mg/kg/injection, schedule: Q01DX001 (ip), vehicle: steriod suspending solution 86 % of control | dose: 400.0 mg/kg/injection, schedule: Q01DX001 (ip), vehicle: steriod suspending solution 97 % of control

C=CCc1cn(C2OC(COC(=O)c3ccccc3)C(OC(=O)c3ccccc3)C2OC(=O)c2ccccc2)c(=S)[nH]c1=O (stereo not given)
inactive: dose: 100.0 mg/kg/injection, schedule: Q01DX005 (ip), vehicle: saline 95 % of control | dose: 200.0 mg/kg/injection, schedule: Q01DX005 (ip), vehicle: saline 98 % of control

OCC(O)C1OCOC2COCOC21 (stereo not given)
inactive: dose: 222.0 mg/kg/injection, schedule: Q01DX Z (ip), vehicle: saline 98 % of control | dose: 333.0 mg/kg/injection, schedule: Q01DX Z (ip), vehicle: saline 117 % of control | dose: 500.0 mg/kg/injection, schedule: Q01DX Z (ip), vehicle: saline 105 % of control

CN(C)CCCNc1n[nH]c2cccc(Cl)c12
inactive: [11] 104 % of control | [12] 96 % of control | [14] 104 % of control

CC(=O)Nc1c(Cl)cc2c(c1Cl)Cc1cc(C#N)ccc1-2
inactive: [8] 102 % of control | [9] 102 % of control | [10] 98 % of control

COc1ccc2nc(C)c(COC(C)=O)c(Cl)c2c1
inactive: [12] 102 % of control | [13] 100 % of control | [14] 92 % of control | [15] 96 % of control | [16] 97 % of control | [17] 112 % of control

N#[N+]c1nc2ncnc(N)c2[nH]1
inactive: dose: 12.5 mg/kg/injection, schedule: Q01DX Z (ip), vehicle: saline 107 % of control | dose: 25.0 mg/kg/injection, schedule: Q01DX Z (ip), vehicle: saline 114 % of control

O=C(NC1CCCC2C(NC(=O)c3ccccc3)CCCC12)c1ccccc1 (stereo not given)
inactive: dose: 100.0 mg/kg/injection, schedule: Q01DX001 (ip), vehicle: saline 91 % of control | [4] 89 % of control | [13] 92 % of control | dose: 200.0 mg/kg/injection, schedule: Q01DX001 (ip), vehicle: saline 91 % of control | [5] 89 % of control | [15] 91 % of control | dose: 400.0 mg/kg/injection, schedule: Q01DX001 (ip), vehicle: saline 94 % of control | [6] 95 % of control | [17] 86 % of control

COCCCNS(=O)(=O)c1ncnc2nc[nH]c12
inactive: dose: 10.0 mg/kg/injection, schedule: Q01DX Z (ip), vehicle: carboxymethylcellulose (CMC) 105 % of control | dose: 20.0 mg/kg/injection, schedule: Q01DX Z (ip), vehicle: carboxymethylcellulose (CMC) 103 % of control | dose: 25.0 mg/kg/injection, schedule: Q01DX Z (ip), vehicle: carboxymethylcellulose (CMC) 105 % of control | dose: 40.0 mg/kg/injection, schedule: Q01DX Z (ip), vehicle: carboxymethylcellulose (CMC) 103 % of control | dose: 50.0 mg/kg/injection, schedule: Q01DX Z (ip), vehicle: carboxymethylcellulose (CMC) 110 % of control | dose: 80.0 mg/kg/injection, schedule: Q01DX Z (ip), vehicle: carboxymethylcellulose (CMC) 93 % of control | dose: 100.0 mg/kg/injection, schedule: Q01DX Z (ip), vehicle: carboxymethylcellulose (CMC) 117 % of control | dose: 125.0 mg/kg/injection, schedule: Q01DX Z (ip), vehicle: carboxymethylcellulose (CMC) 88 % of control | dose: 250.0 mg/kg/injection, schedule: Q01DX Z (ip), vehicle: carboxymethylcellulose (CMC) 87 % of control

Clc1ccnc(SCc2ccccc2)n1
inactive: dose: 100.0 mg/kg/injection, schedule: Q01DX Z (ip), vehicle: methylcellulose (MC) 91 % of control | dose: 200.0 mg/kg/injection, schedule: Q01DX Z (ip), vehicle: methylcellulose (MC) 104 % of control

CC12CC3CC(C)(C1)CC(N)(C3)C2
inactive: [7] 98 % of control

Nc1ccc2c3c(cccc13)C(=O)OC2=O
inactive: dose: 100.0 mg/kg/injection, schedule: Q01DX001 (ip), vehicle: Klucel (hydroxypropylcellulose) (HPC) 91 % of control | [12] 92 % of control | dose: 200.0 mg/kg/injection, schedule: Q01DX001 (ip), vehicle: Klucel (hydroxypropylcellulose) (HPC) 94 % of control | [14] 95 % of control | dose: 400.0 mg/kg/injection, schedule: Q01DX001 (ip), vehicle: Klucel (hydroxypropylcellulose) (HPC) 94 % of control | [16] 90 % of control

O=c1oc2ccc3ccccc3c2cc1-c1nc2ccccc2[nH]1
inactive: dose: 100.0 mg/kg/injection, schedule: Q04DX002 (ip), vehicle: Klucel (hydroxypropylcellulose) (HPC) 95 % of control | dose: 200.0 mg/kg/injection, schedule: Q04DX002 (ip), vehicle: Klucel (hydroxypropylcellulose) (HPC) 91 % of control | dose: 400.0 mg/kg/injection, schedule: Q04DX002 (ip), vehicle: Klucel (hydroxypropylcellulose) (HPC) 110 % of control

c1ccc(-c2ccc([Si](c3ccccc3)(c3ccccc3)c3ccc(-c4ccccc4)cc3)cc2)cc1
inactive: dose: 50.0 mg/kg/injection, schedule: Q01DX009 (ip), vehicle: Klucel (hydroxypropylcellulose) (HPC) 104 % of control | [1] 94 % of control | dose: 100.0 mg/kg/injection, schedule: Q01DX009 (ip), vehicle: Klucel (hydroxypropylcellulose) (HPC) 93 % of control | [2] 96 % of control | dose: 200.0 mg/kg/injection, schedule: Q01DX009 (ip), vehicle: Klucel (hydroxypropylcellulose) (HPC) 87 % of control | [3] 98 % of control
